Experimental data from ChEMBL document CHEMBL4673219, “Novel 5,6-disubstituted pyrrolo[2,3-d]pyrimidine derivatives as broad spectrum antiproliferative agents: Synthesis, cell based assays, kinase profile and molecular docking study” (Bioorg Med Chem, 2018).

Columns and labels:
[1] = test system: MDA-MB-468; experiment: Growth inhibition of human MDA-MB-468 cells assessed as growth percentage at 1 uM incubated for 48 hrs by sulforhodamine B assay relative to control; assay type: functional; details: read-out: Activity
[2] = test system: SF-539; experiment: Growth inhibition of human SF-539 cells assessed as growth percentage at 10 uM incubated for 48 hrs by sulforhodamine B assay relative to control; assay type: functional; details: read-out: Activity
[3] = test system: KM12; experiment: Growth inhibition of human KM12 cells incubated for 48 hrs by sulforhodamine B assay; assay type: functional; details: Homo sapiens
[4] = test system: 786-0; experiment: Growth inhibition of human 786-0 cells assessed as growth percentage at 1 uM incubated for 48 hrs by sulforhodamine B assay relative to control; assay type: functional; details: read-out: Activity
[5] = test system: UACC-257; experiment: Growth inhibition of human UACC-257 cells assessed as growth percentage at 0.1 uM incubated for 48 hrs by sulforhodamine B assay relative to control; assay type: functional; details: read-out: Activity
[6] = test system: K562; experiment: Growth inhibition of human K562 cells incubated for 48 hrs by sulforhodamine B assay; assay type: functional; details: Homo sapiens, K562, 48 h
[7] = test system: SNB-75; experiment: Growth inhibition of human SNB-75 cells assessed as growth percentage at 1 uM incubated for 48 hrs by sulforhodamine B assay relative to control; assay type: functional; details: read-out: Activity
[8] = test system: K562; experiment: Growth inhibition of human K562 cells assessed as growth percentage at 1 uM incubated for 48 hrs by sulforhodamine B assay relative to control; assay type: functional; details: read-out: Activity
[9] = test system: HOP-92; experiment: Growth inhibition of human HOP-92 cells incubated for 48 hrs by sulforhodamine B assay; assay type: functional; details: Homo sapiens
[10] = test system: NCI/ADR-RES; experiment: Growth inhibition of human NCI/ADR-RES cells assessed as growth percentage at 0.01 uM incubated for 48 hrs by sulforhodamine B assay relative to control; assay type: functional; details: read-out: Activity
[11] = test system: MDA-MB-231; experiment: Growth inhibition of human MDA-MB-231/ATCC cells assessed as growth percentage at 1 uM incubated for 48 hrs by sulforhodamine B assay relative to control; assay type: functional; details: read-out: Activity
[12] = test system: OVCAR-8; experiment: Growth inhibition of human OVCAR-8 cells assessed as growth percentage at 10 uM incubated for 48 hrs by sulforhodamine B assay relative to control; assay type: functional; details: read-out: Activity
[13] = test system: U-251; experiment: Growth inhibition of human U-251 cells incubated for 48 hrs by sulforhodamine B assay; assay type: functional; details: Homo sapiens, U-251, 48 h
[14] = test system: BT-549; experiment: Growth inhibition of human BT-549 cells assessed as growth percentage at 0.01 uM incubated for 48 hrs by sulforhodamine B assay relative to control; assay type: functional; details: read-out: Activity
[15] = test system: SK-MEL-2; experiment: Growth inhibition of human SK-MEL-2 cells incubated for 48 hrs by sulforhodamine B assay; assay type: functional; details: Homo sapiens, SK-MEL-2, 48 h
[16] = Cytotoxicity against human HFF-1 cells assessed as cell growth inhibition at 10 uM by MTT assay relative to control; assay type: cell-based; details: read-out: GI
[17] = test system: SK-BR-3; experiment: Antiproliferative activity against human SK-BR-3 cells assessed as cell growth inhibition at 10 uM measured after 72 hrs by MTT assay relative to control; assay type: functional; details: read-out: GI
[18] = test system: COLO 205; experiment: Growth inhibition of human COLO 205 cells assessed as growth percentage at 0.01 uM incubated for 48 hrs by sulforhodamine B assay relative to control; assay type: functional; details: read-out: Activity
[19] = test system: MCF7; experiment: Growth inhibition of human MCF7 cells assessed as growth percentage at 0.01 uM incubated for 48 hrs by sulforhodamine B assay relative to control; assay type: functional; details: read-out: Activity
[20] = test system: DU-145; experiment: Growth inhibition of human DU-145 cells assessed as growth percentage at 10 uM incubated for 48 hrs by sulforhodamine B assay relative to control; assay type: functional; details: read-out: Activity
[21] = test system: UACC-257; experiment: Growth inhibition of human UACC-257 cells assessed as growth percentage at 0.01 uM incubated for 48 hrs by sulforhodamine B assay relative to control; assay type: functional; details: read-out: Activity
[22] = test system: KM12; experiment: Growth inhibition of human KM12 cells assessed as growth percentage at 10 uM incubated for 48 hrs by sulforhodamine B assay relative to control; assay type: functional; details: read-out: Activity
[23] = test system: SF-268; experiment: Growth inhibition of human SF-268 cells assessed as growth percentage at 0.01 uM incubated for 48 hrs by sulforhodamine B assay relative to control; assay type: functional; details: read-out: Activity
[24] = test system: CAKI-1; experiment: Growth inhibition of human CAKI-1 cells assessed as growth percentage at 0.01 uM incubated for 48 hrs by sulforhodamine B assay relative to control; assay type: functional; details: read-out: Activity
[25] = test system: SR; experiment: Growth inhibition of human SR cells assessed as growth percentage at 0.01 uM incubated for 48 hrs by sulforhodamine B assay relative to control; assay type: functional; details: read-out: Activity
[26] = test system: MDA-MB-435; experiment: Growth inhibition of human MDA-MB-435 cells assessed as growth percentage at 0.01 uM incubated for 48 hrs by sulforhodamine B assay relative to control; assay type: functional; details: read-out: Activity
[27] = test system: TK-10; experiment: Growth inhibition of human TK-10 cells assessed as growth percentage at 10 uM incubated for 48 hrs by sulforhodamine B assay relative to control; assay type: functional; details: read-out: Activity
[28] = test system: U-251; experiment: Growth inhibition of human U-251 cells assessed as growth percentage at 10 uM incubated for 48 hrs by sulforhodamine B assay relative to control; assay type: functional; details: read-out: Activity
[29] = test system: HOP-62; experiment: Growth inhibition of human HOP-62 cells assessed as growth percentage at 10 uM incubated for 48 hrs by sulforhodamine B assay relative to control; assay type: functional; details: read-out: Activity
[30] = test system: PC-3; experiment: Growth inhibition of human PC-3 cells assessed as growth percentage at 10 uM incubated for 48 hrs by sulforhodamine B assay relative to control; assay type: functional; details: read-out: Activity
[31] = test system: OVCAR-4; experiment: Growth inhibition of human OVCAR-4 cells incubated for 48 hrs by sulforhodamine B assay; assay type: functional
[32] = test system: M14; experiment: Growth inhibition of human M14 cells assessed as growth percentage at 1 uM incubated for 48 hrs by sulforhodamine B assay relative to control; assay type: functional; details: read-out: Activity
[33] = test system: MDA-MB-468; experiment: Growth inhibition of human MDA-MB-468 cells incubated for 48 hrs by sulforhodamine B assay; assay type: functional; details: Homo sapiens
[34] = test system: SF-268; experiment: Growth inhibition of human SF-268 cells incubated for 48 hrs by sulforhodamine B assay; assay type: functional
[35] = test system: T47D; experiment: Growth inhibition of human T47D cells assessed as growth percentage at 10 uM incubated for 48 hrs by sulforhodamine B assay relative to control; assay type: functional; details: read-out: Activity
[36] = test system: IGROV-1; experiment: Growth inhibition of human IGROV-1 assessed as growth percent at 100 uM incubated for 48 hrs by sulforhodamine B assay relative to control; assay type: functional; details: read-out: Activity
[37] = test system: TK-10; experiment: Growth inhibition of human TK-10 cells assessed as growth percentage at 0.1 uM incubated for 48 hrs by sulforhodamine B assay relative to control; assay type: functional; details: read-out: Activity
[38] = test system: HOP-62; experiment: Growth inhibition of human HOP-62 cells assessed as growth percentage at 1 uM incubated for 48 hrs by sulforhodamine B assay relative to control; assay type: functional; details: read-out: Activity
[39] = read-out: LC50 (the source's name)

Structure (SMILES): Nc1nc2[nH]c(CN3CCN(c4cc(Cl)cc(Cl)c4)CC3)c(CN3CCN(c4cc(Cl)cc(Cl)c4)CC3)c2c(=O)[nH]1
- growth at 1 µM [1]: 85%
- growth at 10 µM [2]: 84.5%
- TGI ([3]; KM12): 3.42 µM
- GI50 ([3]; KM12, 48 h): 1830 nM
- CC50 ([3]; KM12, read-out: LC50 (the source's name)): 6.38 µM
- growth at 1 µM [4]: 82%
- growth at 0.1 µM [5]: 99%
- GI50 [6]: 2330 nM
- growth at 1 µM [7]: 76%
- growth at 1 µM [8]: 83%
- GI50 ([9]; HOP-92): 1350 nM
- TGI ([9]; HOP-92, 48 h): 3.54 µM
- growth at 0.01 µM [10]: 101%
- growth at 1 µM [11]: 101%
- growth at 10 µM [12]: 40.6%
- GI50 [13]: 1670 nM
- TGI [13]: 3.14 µM
- CC50 [13, 39]: 5.9 µM
- growth at 0.01 µM [14]: 91%
- GI50 [15]: 2210 nM
- TGI [15]: 4.12 µM
- inhibition at 10 µM [16]: 15.8%
- inhibition of growth at 10 µM [17]: 90%
- growth at 0.01 µM [18]: 95%
- growth at 0.01 µM [19]: 86%
- growth at 10 µM [20]: 81.3%
- growth at 0.01 µM [21]: 96%
- growth at 10 µM [22]: 64.2%
- growth at 0.01 µM [23]: 102%
- growth at 0.01 µM [24]: 87%
- growth at 0.01 µM [25]: 102%
- growth at 0.01 µM [26]: 89%
- growth at 10 µM [27]: 77.1%
- growth at 10 µM [28]: 36.6%
- growth at 10 µM [29]: 84.2%
- growth at 10 µM [30]: 59.6%
- GI50 [31]: 1580 nM
- TGI [31]: 3.15 µM
- CC50 [31, 39]: 6.25 µM
- growth at 1 µM [32]: 94%
- TGI ([33]; MDA-MB-468): 3.75 µM
- GI50 ([33]; MDA-MB-468, 48 h): 1720 nM
- GI50 [34]: 1770 nM
- TGI [34]: 3.35 µM
- growth at 10 µM [35]: 62.9%
- growth at 100 µM [36]: -48%
- growth at 0.1 µM [37]: 103%
- growth at 1 µM [38]: 85%
